Laboratory results published in ChEMBL document CHEMBL5365526 (J Med Chem, 2023).
The source made the active and inactive calls. The calls are words filed in the database; no cut-off is given here.

Target: Mitogen-activated protein kinase 7 (Homo sapiens, UniProt Q13164)
Experiment: Inhibition of ERK5 (unknown origin) by ADP-Glo kinase assay
Conditions: not given

Sequence of Mitogen-activated protein kinase 7 (Q13164 whole entry): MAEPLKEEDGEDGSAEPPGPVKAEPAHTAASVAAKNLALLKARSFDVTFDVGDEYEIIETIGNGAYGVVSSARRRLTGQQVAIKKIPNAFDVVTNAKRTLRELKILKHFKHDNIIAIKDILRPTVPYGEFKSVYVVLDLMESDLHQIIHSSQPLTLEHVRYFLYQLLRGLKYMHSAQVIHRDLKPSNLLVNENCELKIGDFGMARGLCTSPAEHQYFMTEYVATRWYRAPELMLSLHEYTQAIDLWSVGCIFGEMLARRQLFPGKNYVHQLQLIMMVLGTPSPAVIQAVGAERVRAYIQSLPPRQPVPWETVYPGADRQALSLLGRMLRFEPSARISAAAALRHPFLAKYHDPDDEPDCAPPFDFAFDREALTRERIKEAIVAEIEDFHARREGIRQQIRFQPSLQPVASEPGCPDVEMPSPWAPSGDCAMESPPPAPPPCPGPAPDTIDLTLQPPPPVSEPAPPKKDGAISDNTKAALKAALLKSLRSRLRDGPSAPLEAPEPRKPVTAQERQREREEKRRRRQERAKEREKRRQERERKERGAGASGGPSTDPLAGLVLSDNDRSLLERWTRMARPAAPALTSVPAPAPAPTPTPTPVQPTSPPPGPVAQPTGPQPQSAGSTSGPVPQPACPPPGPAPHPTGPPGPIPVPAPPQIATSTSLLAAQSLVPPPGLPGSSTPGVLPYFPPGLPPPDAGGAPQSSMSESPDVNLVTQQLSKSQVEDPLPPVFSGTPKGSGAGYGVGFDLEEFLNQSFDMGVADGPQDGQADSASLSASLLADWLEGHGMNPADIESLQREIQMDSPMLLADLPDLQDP

IC50	Compound
10.1 nM	COc1cc(N2CCNCC2)ccc1Nc1ncc2c(n1)N(C)c1ccccc1C(=O)N2C
27.1 nM	CCOC(=O)CCCCCCN1CCN(c2ccc(Nc3ncc4c(n3)N(C)c3ccccc3C(=O)N4C)c(OC)c2)CC1
67.1 nM	COc1cc(N2CCN(CCCCCCCC(=O)N[C@H](C(=O)N3C[C@H](O)C[C@H]3C(=O)N[C@@H](C)c3ccc(-c4scnc4C)cc3)C(C)(C)C)CC2)ccc1Nc1ncc2c(n1)N(C)c1ccccc1C(=O)N2C

Tested on: HCT-116
Experiment: Inhibition of cell colony formation in human HCT-116 cells at 5 uM cultured in 8% FBS and measured after 7 days in presence of LPS by crystal violet staining based analysis
Format: functional
Conditions: time 7.0 day

Compound	inhibition
CCOc1cc(N2CCC(O)CC2)ccc1Nc1ncc2c(n1)N(C)c1ccccc1C(=O)N2C	Active

Tested on: A-375
Experiment: Inhibition of cell colony formation in human A-375 cells at 5 uM cultured in 8% FBS and measured after 7 days in presence of LPS by crystal violet staining based analysis
Format: functional
Conditions: time 7.0 day

Compound	inhibition
CCOc1cc(N2CCC(O)CC2)ccc1Nc1ncc2c(n1)N(C)c1ccccc1C(=O)N2C	Active

Target: von Hippel-Lindau disease tumor suppressor/Mitogen-activated protein kinase 7 (Homo sapiens, UniProt Q13164+P40337)
Experiment: PROTAC activity at VHL/ERK5 in human A-375 cells assessed as induction of ERK5 degradation at 100 nM incubated for 24 hrs by western blot analysis
Format: cell-based
Conditions: not given

Sequence of von Hippel-Lindau disease tumor suppressor/Mitogen-activated protein kinase 7 (P40337 whole entry partner): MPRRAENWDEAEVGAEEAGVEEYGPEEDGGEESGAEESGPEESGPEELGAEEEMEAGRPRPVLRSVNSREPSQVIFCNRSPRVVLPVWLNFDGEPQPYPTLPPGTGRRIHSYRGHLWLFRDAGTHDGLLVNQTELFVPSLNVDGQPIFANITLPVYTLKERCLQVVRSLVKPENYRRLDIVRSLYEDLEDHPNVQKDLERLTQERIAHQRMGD
Sequence of von Hippel-Lindau disease tumor suppressor/Mitogen-activated protein kinase 7 (Q13164 2-816 limits assumed): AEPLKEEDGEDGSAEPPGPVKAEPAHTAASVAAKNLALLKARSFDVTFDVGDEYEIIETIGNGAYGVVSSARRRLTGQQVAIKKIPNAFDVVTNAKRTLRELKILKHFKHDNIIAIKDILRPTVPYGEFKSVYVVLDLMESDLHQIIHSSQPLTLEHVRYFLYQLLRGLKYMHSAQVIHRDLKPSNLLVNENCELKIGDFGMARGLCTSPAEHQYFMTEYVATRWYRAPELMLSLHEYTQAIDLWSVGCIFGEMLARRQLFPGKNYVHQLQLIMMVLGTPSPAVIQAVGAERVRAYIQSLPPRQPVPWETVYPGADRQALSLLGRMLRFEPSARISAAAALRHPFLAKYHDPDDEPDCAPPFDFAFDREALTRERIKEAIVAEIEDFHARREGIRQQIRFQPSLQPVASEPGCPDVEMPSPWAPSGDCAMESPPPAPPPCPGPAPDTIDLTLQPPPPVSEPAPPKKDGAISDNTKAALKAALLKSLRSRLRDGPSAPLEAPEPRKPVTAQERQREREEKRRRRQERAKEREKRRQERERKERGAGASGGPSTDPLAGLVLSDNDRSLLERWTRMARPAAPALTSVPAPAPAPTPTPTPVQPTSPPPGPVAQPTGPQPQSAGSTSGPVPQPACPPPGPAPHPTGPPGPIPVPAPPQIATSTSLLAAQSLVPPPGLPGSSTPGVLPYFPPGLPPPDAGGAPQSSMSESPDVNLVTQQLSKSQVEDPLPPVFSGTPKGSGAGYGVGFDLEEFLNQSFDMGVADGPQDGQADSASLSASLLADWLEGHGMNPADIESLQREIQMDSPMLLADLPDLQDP

Compound	Activity
COc1cc(N2CCN(CCOCC#Cc3cccc4c3CN(C3CCC(=O)NC3=O)C4=O)CC2)ccc1Nc1ncc2c(n1)N(C)c1ccccc1C(=O)N2C (centres undefined)	Active
COc1cc(NC(=O)CCCCCCCCCCNc2cccc3c2C(=O)N(C2CCC(=O)NC2=O)C3=O)ccc1Nc1ncc2c(n1)N(C)c1ccccc1C(=O)N2C (centres undefined)	inactive
COc1cc(NC(=O)CNc2cccc3c2C(=O)N(C2CCC(=O)NC2=O)C3=O)ccc1Nc1ncc2c(n1)N(C)c1ccccc1C(=O)N2C (centres undefined)	inactive
COc1cc(NC(=O)NCCOCCNc2cccc3c2C(=O)N(C2CCC(=O)NC2=O)C3=O)ccc1Nc1ncc2c(n1)N(C)c1ccccc1C(=O)N2C (centres undefined)	inactive
COc1cc(NC(=O)CCCCCn2cc(CCNc3cccc4c3C(=O)N(C3CCC(=O)NC3=O)C4=O)nn2)ccc1Nc1ncc2c(n1)N(C)c1ccccc1C(=O)N2C (centres undefined)	inactive
COc1cc(NC(=O)NCCCCNc2cccc3c2C(=O)N(C2CCC(=O)NC2=O)C3=O)ccc1Nc1ncc2c(n1)N(C)c1ccccc1C(=O)N2C (centres undefined)	inactive
COc1cc(NC(=O)NCCCCCNc2cccc3c2C(=O)N(C2CCC(=O)NC2=O)C3=O)ccc1Nc1ncc2c(n1)N(C)c1ccccc1C(=O)N2C (centres undefined)	inactive
COc1cc(NC(=O)NCCOCCOCCNc2cccc3c2C(=O)N(C2CCC(=O)NC2=O)C3=O)ccc1Nc1ncc2c(n1)N(C)c1ccccc1C(=O)N2C (centres undefined)	inactive
COc1cc(NC(=O)NCCCCCCNc2cccc3c2C(=O)N(C2CCC(=O)NC2=O)C3=O)ccc1Nc1ncc2c(n1)N(C)c1ccccc1C(=O)N2C (centres undefined)	inactive
COc1cc(NC(=O)NCCCNc2cccc3c2C(=O)N(C2CCC(=O)NC2=O)C3=O)ccc1Nc1ncc2c(n1)N(C)c1ccccc1C(=O)N2C (centres undefined)	inactive
COc1cc(NC(=O)NCCOCCOCCOCCNc2cccc3c2C(=O)N(C2CCC(=O)NC2=O)C3=O)ccc1Nc1ncc2c(n1)N(C)c1ccccc1C(=O)N2C (centres undefined)	inactive
COc1cc(N2CCN(CCOCCNc3cccc4c3C(=O)N(C3CCC(=O)NC3=O)C4=O)CC2)ccc1Nc1ncc2c(n1)N(C)c1ccccc1C(=O)N2C (centres undefined)	Active

More lines, now with the values ahead:

Activity	Compound
Active	COc1cc(N2CCN(CCCCCC(=O)N[C@H](C(=O)N3C[C@H](O)C[C@H]3C(=O)N[C@@H](C)c3ccc(-c4scnc4C)cc3)C(C)(C)C)CC2)ccc1Nc1ncc2c(n1)N(C)c1ccccc1C(=O)N2C
Active	COc1cc(N2CCC(OCCCCCC(=O)N[C@H](C(=O)N3C[C@H](O)C[C@H]3C(=O)N[C@@H](C)c3ccc(-c4scnc4C)cc3)C(C)(C)C)CC2)ccc1Nc1ncc2c(n1)N(C)c1ccccc1C(=O)N2C
Active	COc1cc(N2CCN(CCOCCOCCCN[C@H](C(=O)N3C[C@H](O)C[C@H]3C(=O)N[C@@H](C)c3ccc(-c4scnc4C)cc3)C(C)(C)C)CC2)ccc1Nc1ncc2c(n1)N(C)c1ccccc1C(=O)N2C
Active	COc1cc(N2CCN(CCCCCCCCCCC(=O)N[C@H](C(=O)N3C[C@H](O)C[C@H]3C(=O)N[C@@H](C)c3ccc(-c4scnc4C)cc3)C(C)(C)C)CC2)ccc1Nc1ncc2c(n1)N(C)c1ccccc1C(=O)N2C
Active	COc1cc(N2CCN(CCCCCCCCCC(=O)N[C@H](C(=O)N3C[C@H](O)C[C@H]3C(=O)N[C@@H](C)c3ccc(-c4scnc4C)cc3)C(C)(C)C)CC2)ccc1Nc1ncc2c(n1)N(C)c1ccccc1C(=O)N2C
Active	COc1cc(N2CCN(CCCCC(=O)N[C@H](C(=O)N3C[C@H](O)C[C@H]3C(=O)N[C@@H](C)c3ccc(-c4scnc4C)cc3)C(C)(C)C)CC2)ccc1Nc1ncc2c(n1)N(C)c1ccccc1C(=O)N2C
Active	COc1cc(C(=O)N2CCN(CCCCCC(=O)N[C@H](C(=O)N3C[C@H](O)C[C@H]3C(=O)N[C@@H](C)c3ccc(-c4scnc4C)cc3)C(C)(C)C)CC2)ccc1Nc1ncc2c(n1)N(C)c1ccccc1C(=O)N2C
inactive	COc1cc(N2CCN(C(=O)CCCCC#Cc3cccc4c3CN(C3CCC(=O)NC3=O)C4=O)CC2)ccc1Nc1ncc2c(n1)N(C)c1ccccc1C(=O)N2C (centres undefined)
Active	COc1cc(N2CCN(CCCCCCCC(=O)N[C@H](C(=O)N3C[C@H](O)C[C@H]3C(=O)N[C@@H](C)c3ccc(-c4scnc4C)cc3)C(C)(C)C)CC2)ccc1Nc1ncc2c(n1)N(C)c1ccccc1C(=O)N2C
inactive	COc1cc(C(=O)N2CCN(C(=O)CCCCC#Cc3cccc4c3CN(C3CCC(=O)NC3=O)C4=O)CC2)ccc1Nc1ncc2c(n1)N(C)c1ccccc1C(=O)N2C (centres undefined)
Active	COc1cc(N2CCN(CCCCCCCCC(=O)N[C@H](C(=O)N3C[C@H](O)C[C@H]3C(=O)N[C@@H](C)c3ccc(-c4scnc4C)cc3)C(C)(C)C)CC2)ccc1Nc1ncc2c(n1)N(C)c1ccccc1C(=O)N2C

Tested on: not listed separately
Experiment: Inhibition of M2 macrophage development in PMA-differentiated human THP-1 cells assessed as CD206 surface expression at 5 uM incubated for 48 hrs by flow cytometry (reference value: 53.4%)
Format: functional
Design: scale not given: the % may be the effect or the level left
Conditions: not given

Compound	Activity
CCOc1cc(N2CCC(O)CC2)ccc1Nc1ncc2c(n1)N(C)c1ccccc1C(=O)N2C	44.5%
